Assay results from publication PMC6514978, “Synthesis, Antibacterial Activities, Mode of Action and Acute Toxicity Studies of New Oxazolidinone-Fluoroquinolone Hybrids” (Molecules, 2019).
Converted amounts (≈) assume the structure as drawn. Where two headings read alike, the source gives them in different places.

Columns and labels:
[1] = system: VRE (13B330); test: MIC, broth microdilution (CLSI), clinical isolate; format: cell-based, vancomycin-resistant enterococcus; conditions: Enterococcus
Excerpt: (§1) 6 standard strains and 3 clinical isolates were used to the preliminary evaluation of in vitro antibacterial activities of oxazolidinone-fluoroquinolone hybrids. For the further evaluation of hybrids OBP-4 and OBP-5, 263 clinical isolates including S. aureus (46), S. haemolyticus(32), S. epidermidis (10), E. faecalis (72), E. faecium (47), S. pneumoniae (13), H. parasuis (34), S. suis (9), and 8 resistant strains including MRSA, MRSE, CIP-resistant S. aureus and S. haemolyticus, VAN and quinolone-resistant S. pneumoniae, LZD-resistant E. faecalis, LZD/VAN and quinolone-resistant E. faecium were collected and tested.
(§2) Susceptibility testing of oxazolidinone-fluoroquinolone hybrids against various bacteria was performed by the broth microdilution method as outlined by the Clinical and Laboratory Standards Institute (CLSI). Three types of media, including cation-adjusted Mueller Hinton broth, Haemophilus Test Medium and cation-adjusted Mueller Hinton broth that contained 3%–5% lysed horse blood, were used to culture the corresponding bacteria. All compounds including comparator drugs were dissolved in an appropriate solvent at a concentration of 2.048 mg/mL and then serially diluted two-fold to provide the required concentrations. A final inoculum of 5 × 10^5 CFU/mL was used and plates were read after incubation for 16–24 h at 35 °C. […] Standard quality control strains (ATCC) were included throughout. Each determination was repeated in triplicate.

[2] = system: P. Aeruginosa (ATCC27853); test: MIC, broth microdilution (CLSI), standard strain; format: cell-based; conditions: Pseudomonas aeruginosa; P. Aeruginosa (ATCC27853); read-out: MIC
Excerpt: as §1, §2

[3] = system: S. pneumoniae (ATCC49619); test: MIC, broth microdilution (CLSI), standard strain; format: cell-based; conditions: Streptococcus pneumoniae
Excerpt: as §1, §2

[4] = system: S. aureus (ATCC29213); test: MIC, broth microdilution (CLSI), standard strain; format: cell-based; conditions: Staphylococcus aureus
Excerpt: as §1, §2

[5] = system: E. coli (ATCC25922); test: MIC, broth microdilution (CLSI), standard strain; format: cell-based; conditions: Escherichia coli; E. coli (ATCC25922); read-out: MIC
Excerpt: as §1, §2

[6] = system: E. faecalis (ATCC29212); test: MIC, broth microdilution (CLSI), standard strain; format: cell-based; conditions: Enterococcus faecalis
Excerpt: as §1, §2

[7] = system: H. influenzae (ATCC49247); test: MIC, broth microdilution (CLSI), standard strain; format: cell-based; conditions: Haemophilus influenzae
Excerpt: as §1, §2

[8] = system: MRSA (13B262); test: MIC, broth microdilution (CLSI), clinical isolate; format: cell-based; conditions: Staphylococcus aureus
Excerpt: as §1, §2

[9] = system: S. agalactiae^R (13B317), levofloxacin-resistant S. agalactiae; test: MIC, broth microdilution (CLSI), clinical isolate; format: cell-based; conditions: Streptococcus agalactiae; levofloxacin-resistant S. agalactiae (13B317)
Excerpt: as §1, §2

[10] = system: S. pneumoniae (13) clinical isolates; test: Susceptibility of clinical isolates (MIC); format: cell-based, Streptococcus pneumoniae; conditions: Streptococcus pneumoniae, S. pneumoniae, 13 clinical isolates
Method: as §2, with “All compounds including comparator drugs were dissolved in an appropriate solvent at a concentration of 2.048 mg/mL and then serially diluted two-fold to provide the required concentrations.” left out

[11] = system: E. faecalis (72) clinical isolates; test: Susceptibility of clinical isolates (MIC); format: cell-based, Enterococcus faecalis; conditions: E. faecalis, 72 clinical isolates
Method: as §2, with “All compounds including comparator drugs were dissolved in an appropriate solvent at a concentration of 2.048 mg/mL and then serially diluted two-fold to provide the required concentrations.” left out

[12] = system: CIP-resistant S. haemolyticus; test: MIC against drug-resistant strain; format: cell-based; conditions: Staphylococcus haemolyticus; S. haemolyticus, CIP-resistant; read-out: MIC
Method: (§3) 6 standard strains and 3 clinical isolates were used to the preliminary evaluation of in vitro antibacterial activities of oxazolidinone-fluoroquinolone hybrids.
as §2, with “All compounds including comparator drugs were dissolved in an appropriate solvent at a concentration of 2.048 mg/mL and then serially diluted two-fold to provide the required concentrations.” left out

[13] = system: VAN and quinolone-resistant E. faecium; test: MIC against drug-resistant strain; format: cell-based; conditions: Enterococcus faecium; E. faecium, VAN and quinolone-resistant; read-out: MIC
Method: as §3
as §2, with “All compounds including comparator drugs were dissolved in an appropriate solvent at a concentration of 2.048 mg/mL and then serially diluted two-fold to provide the required concentrations.” left out

[14] = system: MRSA; test: MIC against drug-resistant strain; format: cell-based; conditions: Staphylococcus aureus, read-out: MIC
Method: as §3
as §2, with “All compounds including comparator drugs were dissolved in an appropriate solvent at a concentration of 2.048 mg/mL and then serially diluted two-fold to provide the required concentrations.” left out

[15] = system: CIP-resistant S. aureus; test: MIC against drug-resistant strain; format: cell-based; conditions: Staphylococcus aureus; S. aureus, CIP-resistant; read-out: MIC
Method: as §3
as §2, with “All compounds including comparator drugs were dissolved in an appropriate solvent at a concentration of 2.048 mg/mL and then serially diluted two-fold to provide the required concentrations.” left out

[16] = system: LZD and quinolone-resistant E. faecium; test: MIC against drug-resistant strain; format: cell-based; conditions: Enterococcus faecium; E. faecium, LZD and quinolone-resistant; read-out: MIC
Method: as §3
as §2, with “All compounds including comparator drugs were dissolved in an appropriate solvent at a concentration of 2.048 mg/mL and then serially diluted two-fold to provide the required concentrations.” left out

[17] = system: VAN and quinolone-resistant S. pneumoniae; test: MIC against drug-resistant strain; format: cell-based; conditions: Streptococcus pneumoniae; S. pneumoniae, VAN and quinolone-resistant; read-out: MIC
Method: as §3
as §2, with “All compounds including comparator drugs were dissolved in an appropriate solvent at a concentration of 2.048 mg/mL and then serially diluted two-fold to provide the required concentrations.” left out

[18] = system: S. aureus (46) clinical isolates; test: Susceptibility of clinical isolates (MIC); format: cell-based, Staphylococcus aureus; conditions: Staphylococcus aureus, S. aureus, 46 clinical isolates
Method: as §2, with “All compounds including comparator drugs were dissolved in an appropriate solvent at a concentration of 2.048 mg/mL and then serially diluted two-fold to provide the required concentrations.” left out

[19] = system: E. faecium (47) clinical isolates; test: Susceptibility of clinical isolates (MIC); format: cell-based, Enterococcus faecium; conditions: Enterococcus faecium, E. faecium, 47 clinical isolates
Method: as §2, with “All compounds including comparator drugs were dissolved in an appropriate solvent at a concentration of 2.048 mg/mL and then serially diluted two-fold to provide the required concentrations.” left out

[20] = system: MRSE; test: MIC against drug-resistant strain; format: cell-based, S. epidermidis; conditions: Staphylococcus epidermidis, read-out: MIC
Method: as §3
as §2, with “All compounds including comparator drugs were dissolved in an appropriate solvent at a concentration of 2.048 mg/mL and then serially diluted two-fold to provide the required concentrations.” left out

[21] = system: S. suis (9) clinical isolates; test: Susceptibility of clinical isolates (MIC); format: cell-based, Streptococcus suis; conditions: Streptococcus suis, S. suis, 9 clinical isolates
Method: as §2, with “All compounds including comparator drugs were dissolved in an appropriate solvent at a concentration of 2.048 mg/mL and then serially diluted two-fold to provide the required concentrations.” left out

[22] = system: LZD-resistant E. faecalis; test: microbe, parasite or virus in culture; format: cell-based; conditions: Enterococcus faecalis
Method: as §3
as §2, with “All compounds including comparator drugs were dissolved in an appropriate solvent at a concentration of 2.048 mg/mL and then serially diluted two-fold to provide the required concentrations.” left out

[23] = system: S. haemolyticus (32) clinical isolates; test: Susceptibility of clinical isolates (MIC); format: cell-based, Staphylococcus haemolyticus; conditions: Staphylococcus haemolyticus, S. haemolyticus, 32 clinical isolates
Method: as §2, with “All compounds including comparator drugs were dissolved in an appropriate solvent at a concentration of 2.048 mg/mL and then serially diluted two-fold to provide the required concentrations.” left out

[24] = system: H. parasuis (34) clinical isolates; test: Susceptibility of clinical isolates (MIC); format: cell-based, Haemophilus parasuis; conditions: H. parasuis, 34 clinical isolates
Method: as §2, with “All compounds including comparator drugs were dissolved in an appropriate solvent at a concentration of 2.048 mg/mL and then serially diluted two-fold to provide the required concentrations.” left out

[25] = system: S. epidermidis (10) clinical isolates; test: Susceptibility of clinical isolates (MIC); format: cell-based, Staphylococcus epidermidis; conditions: Staphylococcus epidermidis, S. epidermidis, 10 clinical isolates
Method: as §2, with “All compounds including comparator drugs were dissolved in an appropriate solvent at a concentration of 2.048 mg/mL and then serially diluted two-fold to provide the required concentrations.” left out

[26] = E. faecalis (ATCC29212), read-out: MIC

O=C(O)c1cn(C2CC2)c2cc(N3CCC(O)(COc4ccc(N5C[C@H](CO)OC5=O)cc4F)CC3)c(F)cc2c1=O [CZD, cadazolid, reference compound]
MIC [1]: 0.25 µg/mL (≈ 0.427 µM) | MIC [2]: 64 µg/mL (≈ 109 µM) | MIC [3]: 0.062 µg/mL (≈ 0.106 µM) | MIC [4]: 0.5 µg/mL (≈ 0.854 µM) | MIC [5]: 8 µg/mL (≈ 13.7 µM) | MIC [6, 26]: 0.5 µg/mL (≈ 0.854 µM) | MIC [7]: 1 µg/mL (≈ 1.71 µM) | MIC [8]: 0.5 µg/mL (≈ 0.854 µM) | MIC [9]: 0.125 µg/mL (≈ 0.213 µM)

CCN1CCN(c2cc3c(cc2F)c(=O)c(C(=O)O)cn3C2CC2)CC1 [ENR, enrofloxacin]
MIC50 ([10]; read-out: MIC50): 32 µg/mL (≈ 89 µM) | MIC90 ([10]; read-out: MIC90): > 32 µg/mL | MIC Range [11]: ≤0.0625 to 2 µg/mL | MIC50 ([11]; Enterococcus faecalis): 0.5 µg/mL (≈ 1.39 µM) | MIC90 ([11]; Enterococcus faecalis): 0.5 µg/mL (≈ 1.39 µM) | MIC [12]: 8 µg/mL (≈ 22.3 µM) | MIC [13]: > 32 µg/mL | MIC [14]: 0.25 µg/mL (≈ 0.696 µM) | MIC [15]: 2 µg/mL (≈ 5.56 µM) | MIC [16]: > 32 µg/mL | MIC [17]: > 32 µg/mL | MIC50 ([18]; read-out: MIC50): 2 µg/mL (≈ 5.56 µM) | MIC90 ([18]; read-out: MIC90): 4 µg/mL (≈ 11.1 µM) | MIC ([18]; read-out: MIC Range): 0.0625 to 8 µg/mL (≈ 0.174 to 22.3 µM) | MIC50 ([19]; read-out: MIC50): 2 µg/mL (≈ 5.56 µM) | MIC90 ([19]; read-out: MIC90): 32 µg/mL (≈ 89 µM) | MIC [20]: ≤ 0.0625 µg/mL | MIC50 ([21]; read-out: MIC50): 0.25 µg/mL (≈ 0.696 µM) | MIC90 ([21]; read-out: MIC90): 4 µg/mL (≈ 11.1 µM) | MIC ([21]; read-out: MIC Range): 0.0625 to 8 µg/mL (≈ 0.174 to 22.3 µM) | MIC [22]: 1 µg/mL (≈ 2.78 µM) | MIC50 ([23]; read-out: MIC50): ≤ 0.0625 µg/mL | MIC90 ([23]; read-out: MIC90): 0.5 µg/mL (≈ 1.39 µM) | MIC ([23]; read-out: MIC Range): 0.0625 to 8 µg/mL (≈ 0.174 to 22.3 µM) | MIC50 ([24]; Glaesserella parasuis, read-out: MIC50): ≤ 0.0625 µg/mL | MIC90 ([24]; Glaesserella parasuis, read-out: MIC90): 1 µg/mL (≈ 2.78 µM) | MIC Range [24]: ≤0.0625 to 1 µg/mL | MIC50 ([25]; read-out: MIC50): 2 µg/mL (≈ 5.56 µM) | MIC90 ([25]; read-out: MIC90): 4 µg/mL (≈ 11.1 µM) | MIC ([25]; read-out: MIC Range): 0.125 to 4 µg/mL (≈ 0.348 to 11.1 µM)

COc1c(N2C[C@@H]3CCCN[C@@H]3C2)c(F)cc2c(=O)c(C(=O)O)cn(C3CC3)c12 [MXF, moxifloxacin, reference compound]
MIC [1]: 64 µg/mL (≈ 159 µM) | MIC [2]: 4 µg/mL (≈ 9.96 µM) | MIC [3]: 0.062 µg/mL (≈ 0.154 µM) | MIC [4]: 0.031 µg/mL (≈ 0.0772 µM) | MIC [5]: 0.016 µg/mL (≈ 0.0399 µM) | MIC ([6]; ATCC29212): 0.125 µg/mL (≈ 0.311 µM) | MIC [7]: 0.008 µg/mL (≈ 0.0199 µM) | MIC [8]: 8 µg/mL (≈ 19.9 µM) | MIC [9]: 4 µg/mL (≈ 9.96 µM)

CN1COc2c(N3CCC(O)(COc4ccc(N5C[C@H](CO)OC5=O)cc4F)CC3)c(F)cc3c(=O)c(C(=O)O)cn1c23 [OBP-1]
MIC [1]: 1 µg/mL (≈ 1.66 µM) | MIC [2]: 64 µg/mL (≈ 106 µM) | MIC [3]: 0.25 µg/mL (≈ 0.415 µM) | MIC [4]: 1 µg/mL (≈ 1.66 µM) | MIC [5]: 4 µg/mL (≈ 6.64 µM) | MIC [6, 26]: 1 µg/mL (≈ 1.66 µM) | MIC [7]: 1 µg/mL (≈ 1.66 µM) | MIC [8]: 2 µg/mL (≈ 3.32 µM) | MIC [9]: 0.5 µg/mL (≈ 0.83 µM)
